Experimental data as given in ChEMBL document CHEMBL2163346, “Acetylcholinesterase inhibitors from the leaves of Macaranga kurzii” (J Nat Prod, 2012).
The source made the active and inactive calls. No cut-off for these calls is given here.

Assays:
[1] = system: KB; assay: Cytotoxicity against human KB cells after 72 hrs by neutral red staining; assay type: functional, cell-based
[2] = molecular target: Acetylcholinesterase (Electrophorus electricus, UniProt O42275)
Description: Inhibition of Electrophorus electricus C2888 AChE using acetylthiocholine iodide as substrate by Ellman's spectroscopic method

[3] = system: KB; assay: Cytotoxicity against human KB cells at 20 uM after 72 hrs by neutral red staining; assay type: functional, cell-based
[4] = molecular target: Acetylcholinesterase (Electrophorus electricus) (UniProt O42275); conditions: C2888, 50 uM
Sequence of Acetylcholinesterase (Electrophorus electricus) (O42275 24-633 limits assumed): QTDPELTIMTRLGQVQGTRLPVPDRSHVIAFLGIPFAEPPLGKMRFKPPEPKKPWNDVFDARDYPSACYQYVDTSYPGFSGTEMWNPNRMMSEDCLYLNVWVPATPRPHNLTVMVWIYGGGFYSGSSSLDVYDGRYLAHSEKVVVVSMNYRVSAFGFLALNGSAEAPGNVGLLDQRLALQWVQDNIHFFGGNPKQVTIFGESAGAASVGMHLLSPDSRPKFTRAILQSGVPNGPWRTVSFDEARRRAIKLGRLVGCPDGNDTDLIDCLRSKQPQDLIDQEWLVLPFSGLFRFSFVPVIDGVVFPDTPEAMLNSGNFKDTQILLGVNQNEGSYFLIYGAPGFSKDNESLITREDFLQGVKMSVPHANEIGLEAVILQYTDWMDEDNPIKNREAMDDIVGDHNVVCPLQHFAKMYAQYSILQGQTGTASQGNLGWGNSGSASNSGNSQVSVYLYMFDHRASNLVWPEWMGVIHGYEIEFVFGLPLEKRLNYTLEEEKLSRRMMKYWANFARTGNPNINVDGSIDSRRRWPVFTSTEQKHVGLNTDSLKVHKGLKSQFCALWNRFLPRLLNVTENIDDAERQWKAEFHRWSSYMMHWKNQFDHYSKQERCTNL
Description: Inhibition of Electrophorus electricus C2888 AChE using acetylthiocholine iodide as substrate at 50 uM by Ellman's spectroscopic method

Sequence of Acetylcholinesterase (O42275 whole entry): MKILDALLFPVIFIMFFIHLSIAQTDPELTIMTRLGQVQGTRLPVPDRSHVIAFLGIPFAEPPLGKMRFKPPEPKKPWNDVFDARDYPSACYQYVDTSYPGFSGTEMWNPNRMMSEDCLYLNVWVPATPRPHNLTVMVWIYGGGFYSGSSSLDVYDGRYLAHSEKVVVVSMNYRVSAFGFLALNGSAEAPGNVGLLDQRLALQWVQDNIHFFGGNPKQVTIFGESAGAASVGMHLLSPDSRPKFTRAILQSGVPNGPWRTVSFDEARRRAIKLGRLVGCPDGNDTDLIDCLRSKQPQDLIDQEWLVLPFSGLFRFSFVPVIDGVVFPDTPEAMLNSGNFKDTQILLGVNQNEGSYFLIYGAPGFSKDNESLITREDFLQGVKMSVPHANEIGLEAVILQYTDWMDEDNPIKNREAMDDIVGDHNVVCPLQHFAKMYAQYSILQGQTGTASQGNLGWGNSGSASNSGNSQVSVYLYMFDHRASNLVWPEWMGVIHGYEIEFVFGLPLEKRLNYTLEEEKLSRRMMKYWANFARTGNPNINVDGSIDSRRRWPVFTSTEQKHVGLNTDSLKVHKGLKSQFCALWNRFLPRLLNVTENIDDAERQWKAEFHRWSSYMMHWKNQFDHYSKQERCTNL

Row | Structure (SMILES) | IC50 [1] [µM] | IC50 [2] [µM] | Activity [3] | inhibition [4]
1 | CC(C)=CCc1c(O)cc2oc(-c3ccccc3)c(O)c(=O)c2c1O | 10 | – | – | –
2 | COc1cc(/C=C/c2ccccc2)c(CC=C(C)C)c(OC)c1 | 4 | 19 | – | –
3 | CC(C)=CCc1c(O)cc2c(c1O)C(=O)C[C@@H](c1ccccc1)O2 | – | 18 | inactive | –
4 | CC(C)=CCc1c(O)cc(O)c2c(=O)c(O)c(-c3ccccc3)oc12 | – | – | inactive | –
5 | COc1cc(/C=C\c2ccccc2)cc(OC)c1 | – | – | inactive | –
6 | COc1cc(O)c2c(=O)c(O)c(-c3ccccc3)oc2c1 | – | – | inactive | –
7 | O=c1c(O)c(-c2ccccc2)oc2cc(O)cc(O)c12 | – | – | inactive | –
8 | CC1(C)Oc2cc3oc(-c4ccccc4)c(O)c(=O)c3c(O)c2CC1O (racemic) | 13 | – | – | –
9 | C=C(C)C(O)Cc1c(O)cc2oc(-c3ccccc3)c(O)c(=O)c2c1O (racemic) | – | – | inactive | –
10 | COc1cc(/C=C/c2ccccc2)cc(OC)c1 [3,5-O-DIMETHYLPINOSYLVIN] | – | 9 | inactive | –
11 | Oc1cc(/C=C/c2ccccc2)c2ccoc2c1 [FURANOKURZIN] | – | 42 | inactive | –
12 | CC(C)=CCc1c(O)cc(O)c2c1O[C@H](c1ccccc1)CC2=O [GLABRANIN] | – | 23 | inactive | –
13 | CC1(C)C=Cc2c(cc3oc(-c4ccccc4)c(O)c(=O)c3c2O)O1 [MACAKURZIN C] | – | 20 | inactive | inactive
